Source: US7449617B2, “Plants with elevated levels of gallic acid/polyphenol oxidase and methods of generating such plants” (The Regents of the University of California, priority 2004, dated 2008)

Test system: buffered rumen fluid
Experiment: In vitro gas production technique: incubation of alfalfa hays in buffered rumen fluid with added tannins, net ammonium-N in supernatant
Design: species or system cows
Details: for % Difference from control / Net ammonium-N in supernatant: 72 h; for Net ammonium-N in supernatant: 30 ml buffered rumen fluid, SD in parenthesis; for Effect on ammonia-N (in words): in vitro rumen fluid system, preliminary study
Procedure: A preliminary in vitro study was conducted to evaluate GA and TA (tannic acid) and to compare this with CT (a source of condensed tannins). The study utilized an in vitro gas production technique that has been established and validated at UC Davis. This system uses canulated cows as a rumen fluid donor. […] The reduction in protein degradation and ammonia nitrogen accumulation was dependant on type of tannins and levels used in each of the experiments. […] [table]

[1] = CUF101, tannin added at 2% DM, Experiment 1
[2] = CUF101, tannin added at 4% DM, Experiment 1
[3] = CUF101, tannin added at 5% DM, Experiment 2
[4] = CUF101, tannin added at 6% DM, Experiment 1
[5] = CUF101, tannin added at 10% DM, Experiment 2
[6] = CUF101, tannin added at 15% DM, Experiment 2
[7] = CUF101 alfalfa hay 200 mg, tannin added at 2% DM, Experiment 1
[8] = CUF101 alfalfa hay 200 mg, tannin added at 4% DM, Experiment 1
[9] = CUF101 alfalfa hay 200 mg, tannin added at 5% DM, Experiment 2
[10] = CUF101 alfalfa hay 200 mg, tannin added at 6% DM, Experiment 1
[11] = CUF101 alfalfa hay 200 mg, tannin added at 10% DM, Experiment 2
[12] = CUF101 alfalfa hay 200 mg, tannin added at 15% DM, Experiment 2
[13] = Sutter alfalfa hay 200 mg, tannin added at 2% DM, Experiment 1
[14] = Sutter alfalfa hay 200 mg, tannin added at 4% DM, Experiment 1
[15] = Sutter alfalfa hay 200 mg, tannin added at 5% DM, Experiment 2
[16] = Sutter alfalfa hay 200 mg, tannin added at 6% DM, Experiment 1
[17] = Sutter alfalfa hay 200 mg, tannin added at 10% DM, Experiment 2
[18] = Sutter alfalfa hay 200 mg, tannin added at 15% DM, Experiment 2
[19] = Sutter, tannin added at 2% DM, Experiment 1
[20] = Sutter, tannin added at 4% DM, Experiment 1
[21] = Sutter, tannin added at 5% DM, Experiment 2
[22] = Sutter, tannin added at 6% DM, Experiment 1
[23] = Sutter, tannin added at 10% DM, Experiment 2
[24] = Sutter, tannin added at 15% DM, Experiment 2

O=C(O)c1cc(O)c(O)c(O)c1 [GA, 3,4,5-trihydroxybenzoic acid]
% Difference from control [1]: +3.20%
% Difference from control [2]: +4.92%
% Difference from control [3]: +1.68%
% Difference from control [4]: +5.63%
% Difference from control [5]: −1.33%
% Difference from control [6]: −3.54%
Net ammonium-N in supernatant [7]: 3.610 (0.338) mg
Net ammonium-N in supernatant [8]: 3.670 (0.404) mg
Net ammonium-N in supernatant [9]: 3.450 (0.240) mg
Net ammonium-N in supernatant [10]: 3.695 (0.305) mg
Net ammonium-N in supernatant [11]: 3.348 (0.254) mg
Net ammonium-N in supernatant [12]: 3.273 (0.234) mg
Net ammonium-N in supernatant [13]: 3.540 (0.432) mg
Net ammonium-N in supernatant [14]: 3.608 (0.564) mg
Net ammonium-N in supernatant [15]: 3.415 (0.191) mg
Net ammonium-N in supernatant [16]: 3.575 (0.431) mg
Net ammonium-N in supernatant [17]: 3.348 (0.206) mg
Net ammonium-N in supernatant [18]: 3.298 (0.177) mg
% Difference from control [19]: +0.48%
% Difference from control [20]: −2.41%
% Difference from control [21]: +0.21%
% Difference from control [22]: +1.48%
% Difference from control [23]: −1.76%
% Difference from control [24]: −3.23%
Effect on ammonia-N (in words): did not show any affect

O=C(OC[C@H]1O[C@@H](OC(=O)c2cc(O)c(O)c(OC(=O)c3cc(O)c(O)c(O)c3)c2)[C@H](OC(=O)c2cc(O)c(O)c(OC(=O)c3cc(O)c(O)c(O)c3)c2)[C@@H](OC(=O)c2cc(O)c(O)c(OC(=O)c3cc(O)c(O)c(O)c3)c2)[C@@H]1OC(=O)c1cc(O)c(O)c(OC(=O)c2cc(O)c(O)c(O)c2)c1)c1cc(O)c(O)c(OC(=O)c2cc(O)c(O)c(O)c2)c1 [TA, tannic acid]
% Difference from control [1]: −0.66%
% Difference from control [2]: −4.00%
% Difference from control [3]: −16.23%
% Difference from control [4]: −8.52%
% Difference from control [5]: −26.23%
% Difference from control [6]: −48.57%
Net ammonium-N in supernatant [7]: 3.475 (0.269) mg
Net ammonium-N in supernatant [8]: 3.358 (0.231) mg
Net ammonium-N in supernatant [9]: 2.830 (0.435) mg
Net ammonium-N in supernatant [10]: 3.200 (0.308) mg
Net ammonium-N in supernatant [11]: 2.503 (0.177) mg
Net ammonium-N in supernatant [12]: 1.745 (0.204) mg
Net ammonium-N in supernatant [13]: 3.168 (0.737) mg
Net ammonium-N in supernatant [14]: 3.250 (0.424) mg
Net ammonium-N in supernatant [15]: 3.030 (0.167) mg
Net ammonium-N in supernatant [16]: 2.998 (0.310) mg
Net ammonium-N in supernatant [17]: 2.543 (0.208) mg
Net ammonium-N in supernatant [18]: 1.888 (0.139) mg
% Difference from control [19]: −10.08%
% Difference from control [20]: −7.75%
% Difference from control [21]: −11.09%
% Difference from control [22]: −14.90%
% Difference from control [23]: −25.38%
% Difference from control [24]: −44.60%
Effect on ammonia-N (in words): effective in reducing ammonia-N
